Active and inactive are the calls of the source. The calls are words filed in the database; no cut-off is given here.
Tests used:
[1] = test system: Ty-82; experiment: Induction of apoptosis in human Ty-82 cells assessed as reduction of IDO1 mRNA level at 0.1 to 10 nM for 24 hrs by […]; assay type: functional, cell-based; settings: dose 0.1-10 nM
[2] = test system: Ty-82; experiment: Induction of apoptosis in human Ty-82 cells for 48 hrs by annexin V-FITC based flow cytometric analysis; assay type: functional, cell-based; settings: dose 0.1-10 nM
[3] = test system: Ty-82; experiment: Induction of apoptosis in human Ty-82 cells assessed as increase in caspase 9 at 0.1 to 10 nM for 48 hrs […]; assay type: functional, cell-based; settings: dose 0.1-10 nM
[4] = test system: MV4-11; experiment: Antitumor activity against human MV4-11 cells xenografted in BALB/c mouse assessed as growth inhibition at 0.6 mg/kg, po qd 21 days relative to control; assay type: functional; settings: MV4-11, 504 h, time 21 day, read-out: GI
[5] = Toxicity in BALB/c mouse xenografted with human Ty-82 assessed as body weight loss treated at 0.25 to 0.5 mg/kg, po qd for 21 days; assay type: organism-based; settings: in vivo, 504 h, dose 0.25-0.5 mg/kg, time 21 day
[6] = test system: Ty-82; experiment: Induction of apoptosis in human Ty-82 cells assessed as reduction of c-Myc mRNA level at 0.1 to 10 nM for 24 hrs by […]; assay type: functional, cell-based; settings: dose 0.1-10 nM
[7] = test system: Ty-82; experiment: Induction of apoptosis in human Ty-82 cells assessed as increase in caspase 3 at 0.1 to 10 nM for 48 hrs […]; assay type: functional, cell-based; settings: dose 0.1-10 nM
[8] = test system: CAPAN-1; experiment: Induction of apoptosis in human CAPAN-1 cells assessed as increase in caspase 7 at 0.1 to 10 nM for 48 hrs […]; assay type: functional, cell-based; settings: dose 0.1-10 nM
[9] = test system: CAPAN-1; experiment: Induction of apoptosis in human CAPAN-1 cells assessed as increased cleaved PARP at 0.1 to 10 nM for 48 hrs […]; assay type: functional, cell-based; settings: dose 0.1-10 nM
[10] = test system: CAPAN-1; experiment: Induction of apoptosis in human CAPAN-1 cells assessed as increase in caspase 3 at 0.1 to 10 nM for 48 hrs […]; assay type: functional, cell-based; settings: dose 0.1-10 nM
[11] = test system: Ty-82; experiment: Antitumor activity against human Ty-82 cells xenografted in BALB/c nude mouse assessed tumor growth inhibition treated at 0.5 mg/kg, po qd for 21 days relative to control; assay type: functional; settings: TY82, 504 h, time 21 day, read-out: TGI
[12] = test system: Ty-82; experiment: Induction of apoptosis in human Ty-82 cells assessed as increase in caspase 7 at 0.1 to 10 nM for 48 hrs […]; assay type: functional, cell-based; settings: dose 0.1-10 nM
[13] = test system: CAPAN-1; experiment: Induction of apoptosis in human CAPAN-1 cells for 48 hrs by annexin V-FITC based flow cytometric analysis; assay type: functional, cell-based; settings: dose 0.1-10 nM
[14] = test system: Ty-82; experiment: Induction of apoptosis in human Ty-82 cells assessed as increase in cleaved PARP at 0.1 to 10 nM for 48 hrs […]; assay type: functional, cell-based; settings: dose 0.1-10 nM
[15] = test system: CAPAN-1; experiment: Induction of apoptosis in human CAPAN-1 cells assessed as increase in caspase 9 at 0.1 to 10 nM for 48 hrs […]; assay type: functional, cell-based; settings: dose 0.1-10 nM
[16] = Toxicity in BALB/c mouse xenografted with human Ty-82 assessed as death treated at 0.25 to 0.5 mg/kg, po qd for 21 days; assay type: organism-based; settings: in vivo, 504 h, dose 0.25-0.5 mg/kg, time 21 day
[17] = Toxicity in BALB/c mouse xenografted with human MM1.S assessed body weight loss treated at 3 mg/kg, po qd for 10 days; assay type: organism-based; settings: in vivo, 240 h, time 10 day
[18] = AUClast in CD-1 mouse at 10 mg/kg, po; assay type: ADME, organism-based; parameters: dose 10 mg/kg, route po; settings: in vivo
[19] = Tmax in CD-1 mouse at 10 mg/kg, po; assay type: ADME, organism-based; settings: in vivo
[20] = Observed MRT infinity in CD-1 mouse at 10 mg/kg, po; assay type: ADME, organism-based; settings: in vivo
[21] = Half life in CD-1 mouse at 10 mg/kg, po; assay type: ADME, organism-based; settings: in vivo
[22] = Observed AUC infinity in CD-1 mouse at 10 mg/kg, po; assay type: ADME, organism-based; parameters: dose 10 mg/kg, route po; settings: in vivo
[23] = test system: MM1.S; experiment: Antitumor activity against human MM1.S cells xenografted in BALB/c nude mouse assessed growth inhibition treated at 3 mg/kg, po qd for 10 days followed by dose adjustment to 1.5 mg/kg from day 11 to 21 due to body weight loss relative to control; assay type: functional; settings: dose 1.5-3 mg/kg, time 21 day, at 1.5 to 3 mg/kg
[24] = Cmax in CD-1 mouse at 10 mg/kg, po; assay type: ADME, organism-based; parameters: dose 10 mg/kg, route po; settings: in vivo
[25] = test system: MM1.S; experiment: Antiproliferative activity against human MM1.S cells incubated for 72 hrs by sulforhodamine B based cell counting kit-8 assay; assay type: functional
[26] = test system: Ty-82; experiment: Antiproliferative activity against human Ty-82 cells incubated for 72 hrs by sulforhodamine B based cell counting kit-8 assay; assay type: functional; settings: TY82, 72 h
[27] = Metabolic stability in human liver microsomes assessed as half life; assay type: ADME, Microsome
[28] = Metabolic stability in dog liver microsomes assessed as half life; assay type: ADME, Canis lupus familiaris, Microsome
[29] = Metabolic stability in human liver microsomes assessed as clearance; assay type: ADME, Microsome; settings: read-out: CLH
[30] = Metabolic stability in mouse liver microsomes assessed as half life; assay type: ADME, Microsome
[31] = Metabolic stability in dog liver microsomes assessed as clearance; assay type: ADME, Canis lupus familiaris, Microsome; settings: read-out: CLH
[32] = Metabolic stability in mouse liver microsomes assessed as clearance; assay type: ADME, Microsome; settings: read-out: CLH
[33] = target: Bromodomain-containing protein 4 (Homo sapiens, UniProt O60885); experiment: Inhibition of full length BRD4 (unknown origin) transfected in HEK293 cells incubated for 20 hrs measured by NanoBRET BRD4/Histone H3.3 interaction assay kit; assay type: cell-based
[34] = test system: MV4-11; experiment: Antiproliferative activity against human MV4-11 cells; assay type: functional, cell-based

AUC(0-t) [18] | Tmax [19] | MRT [20] | half-life [21] | AUC(0-inf) [22] | Cmax [24] | IC50 [25] | Compound | IC50 [26] | further results
– | – | – | – | – | – | – | CCS(=O)(=O)Nc1ccc(Oc2ccc(F)cc2F)c(-c2cn(C)c(=O)c3[nH]ccc23)c1 [MIVEBRESIB] | – | Activity [1]: Active; Activity [2]: Dose-Dependent Effect; Activity [3]: Active; inhibition in vivo at 0.6 mg/kg [4]: 66.9%; Activity [5]: Toxic; Activity [6]: Active; Activity [7]: Active; Activity [8]: Active; Activity [9]: Active; Activity [10]: Active; inhibition in vivo at 0.5 mg/kg [11]: 67.6%; Activity [12]: Active; Activity [13]: Dose-Dependent Effect; Activity [14]: Active; Activity [15]: Active; Activity [16]: Non-Toxic
4150 ng·h/mL | 2 h | 4.85 h | 2.82 h | 4170 ng·h/mL | 823 ng/mL | – | Cc1ccc(-n2nc(C(=O)N3CCN(C(=O)c4nc(-c5ccc6c(c5)N(C5CCCC5)[C@H](C)C(=O)N6C)n(-c5ccc(C)cc5)n4)[C@H](C)C3)nc2-c2ccc3c(c2)N(C2CCCC2)[C@H](C)C(=O)N3C)cc1 | – | Activity [17]: Toxic; growth inhibition (GI) [23]: 78.6%
71.5 ng·h/mL | 0.58 h | 1.75 h | 0.74 h | 75.8 ng·h/mL | 58.1 ng/mL | – | Cc1ccc(-n2nc(C(=O)NCCCNC(=O)c3nc(-c4ccc5c(c4)N(C4CCCC4)[C@H](C)C(=O)N5C)n(-c4ccc(C)cc4)n3)nc2-c2ccc3c(c2)N(C2CCCC2)[C@H](C)C(=O)N3C)cc1 | – | –
– | – | – | – | – | – | 0.51 nM | C[C@@H]1C(=O)N(C)c2ccc(-c3nc(C(=O)N4CCN(C(=O)c5nc(-c6ccc7c(c6)N(C6CCCC6)[C@H](C)C(=O)N7C)n(-c6ccc7ccccc7c6)n5)CC4)nn3-c3ccc4ccccc4c3)cc2N1C1CCCC1 | 0.6 nM | –
368 ng·h/mL | 0.5 h | 2.57 h | 0.15 h | 371 ng·h/mL | 286 ng/mL | – | Cc1ccc(-n2nc(C(=O)N3CCCN(C(=O)c4nc(-c5ccc6c(c5)N(C5CCCC5)[C@H](C)C(=O)N6C)n(-c5ccc(C)cc5)n4)CC3)nc2-c2ccc3c(c2)N(C2CCCC2)[C@H](C)C(=O)N3C)cc1 | – | –
– | – | – | – | – | – | 3.12 nM | Cc1ccc(-n2nc(C(=O)N3CCN(C(=O)c4nc(-c5ccc6c(c5)N(C5CCCC5)[C@@H](C)C(=O)N6C)n(-c5ccc(C)cc5)n4)CC3)nc2-c2ccc3c(c2)N(C2CCCC2)[C@H](C)C(=O)N3C)cc1 | 16.7 nM | IC50 [33]: 66.6 nM
– | – | – | – | – | – | > 20000 nM | Cc1ccc(-n2nc(C(=O)N3CCNCC3)nc2-c2ccc3c(c2)N(C2CCCC2)[C@@H](C)C(=O)N3C)cc1 | > 20000 nM | IC50 [33]: 1730 nM
361 ng·h/mL | 1 h | 1.69 h | 0.82 h | 372 ng·h/mL | 238 ng/mL | – | Cc1ccc(-n2nc(C(=O)N3CCN(C(=O)c4nc(-c5ccc6c(c5)N(C5CCCC5)[C@H](C)C(=O)N6C)n(-c5ccc(C)cc5)n4)CC3)nc2-c2ccc3c(c2)N(C2CCCC2)[C@H](C)C(=O)N3C)cc1 | – | IC50 [33]: 6.2 nM
– | – | – | – | – | – | – | Cc1sc2c(c1C)C(c1ccc(Cl)cc1)=N[C@@H](CC(=O)NCCOCCOCCOCCOCCOCCOCCOCCNC(=O)C[C@@H]1N=C(c3ccc(Cl)cc3)c3c(sc(C)c3C)-n3c(C)nnc31)c1nnc(C)n1-2 | – | IC50 [34]: 0.17 nM
– | – | – | – | – | – | 0.74 nM | Cc1ccc(-n2nc(C(=O)N3CCC4(CCN(C(=O)c5nc(-c6ccc7c(c6)N(C6CCCC6)[C@H](C)C(=O)N7C)n(-c6ccc(C)cc6)n5)C4)C3)nc2-c2ccc3c(c2)N(C2CCCC2)[C@H](C)C(=O)N3C)cc1 | 2.5 nM | –

Compound | AUC(0-t) [18] | Tmax [19] | MRT [20] | half-life [21] | AUC(0-inf) [22] | Cmax [24] | IC50 [25] | IC50 [26] | further results
Cc1ccc(-n2nc(C(=O)N3C[C@H](C)N(C(=O)c4nc(-c5ccc6c(c5)N(C5CCC5)[C@H](C)C(=O)N6C)n(-c5ccc(C)cc5)n4)C[C@H]3C)nc2-c2ccc3c(c2)N(C2CCC2)[C@H](C)C(=O)N3C)cc1 | – | – | – | – | – | – | 0.04 nM | 0.05 nM | half-life [27]: 48.7 h; half-life [28]: 34.7 h; microsomal CLint [29]: 0.5 µL/min/mg; Activity [5]: Toxic; half-life [30]: 9.48 h; inhibition in vivo at 0.5 mg/kg [11]: 61%; microsomal CLint [31]: 0.7 µL/min/mg; microsomal CLint [32]: 2.4 µL/min/mg; Activity [16]: Non-Toxic

Reference: ChEMBL document CHEMBL5352381, “Design and development of a novel series of oral bivalent BET inhibitors with potent anticancer activities” (Eur J Med Chem, 2022)
